{
  "source": "patent US20100234315A1",
  "about": "“COMPOSITIONS AND METHODS FOR TREATING PSYCHIATRIC AND […]” (priority 2009, published 2010)",
  "key": {"[1]": {"tested_on": "spontaneously hypertensive rats (SHR)", "experiment": "Open-field locomotor activity (beam breaks, rearing) in SHR rats", "assay_type": "in vivo, rat", "protocol": "(§1) The effects of Protoveratrine B (PVB) on locomotor activity were determined using an open-field apparatus (High Density Cage Rack System; Kent Scientific Corporation). Adult spontaneously hypertensive rats (SHR) and adult Wistar Kyoto rats (WKY) were purchased from Charles River Laboratories. […] Sessions lasted 30-minutes and were separated by at least one day to diminish the likelihood of habituation to the apparatus. Three doses of PVB were investigated based upon the blood-pressure phase of the study: 0.01, 0.02 & 0.04 mg/kg.\n(§2) The number of beam breaks was averaged across subjects and into 30-s bins. The upper panel represents the WKY control rats (N=8); the bottom panel represents the SHR rats (N=8). The different plots represent the baseline and different doses of PVB. Several details can be gleaned from the data. […] Second, activity levels in the SHRs appear to drop off precipitously throughout the session and eventually converge with the activity levels seen in the WKYs.\n(§3) To better comprehend the effects of dose on locomotor activity, a dose-response graph was constructed for each rat strain. To construct these graphs, the number of beam breaks that occurred in the first thirty bins (first 15 min) of all rats within a strain was averaged and plotted as a function of dose. The resulting graphs, shown in FIG. 2, represent the effects of PVB on activity within the first 15 minutes post injection.\n(§4) Another measure of activity level is rearing (measured by beam breaks of an infrared plane approximately 5″ above the floor of the chamber). Rearing data were analyzed in the same way as the horizontal beam breaks. The results are illustrated in FIG. 3. […] Unlike the horizontal activity, rearing activity in SHRs was decreased by the 0.01 mg/kg dose."}, "Wistar Kyoto rats (WKY)": {"tested_on": "Wistar Kyoto rats (WKY)", "experiment": "Open-field locomotor activity (beam breaks, rearing) in WKY rats", "assay_type": "in vivo, rat", "protocol": "as §1, §2, §3, §4"}},
  "data": [
    {"smiles": "CC[C@@H](C)C(=O)O[C@H]1[C@H](O)[C@H]2[C@@H](CN3C[C@@H](C)CC[C@H]3[C@@]2(C)O)[C@@H]2C[C@]34O[C@]5(O)[C@@H](OC(=O)[C@](C)(O)[C@@H](C)O)CC[C@@]3(C)[C@@H]5[C@@H](OC(C)=O)[C@@H](OC(C)=O)[C@H]4[C@@]21O", "note": "(stereo in doubt) [PVB, Protoveratrine B]", "values": [
      {"measurement": "activity level (beam breaks) vs baseline", "setting": "[1]; 0.01 mg/kg i.p., FIG. 1", "value": "did not affect activity"},
      {"measurement": "rearing activity at lowest dose", "setting": "[1]; 0.01 mg/kg i.p., FIG. 3", "value": "decreased"},
      {"measurement": "activity level, largest dose compared with lowest dose", "setting": "[1]; 0.04 mg/kg vs 0.01 mg/kg i.p., FIG. 1", "value": "greater decrease in activity"},
      {"measurement": "mean rearing, first 30 bins", "setting": "[1]; 0.01-0.04 mg/kg i.p., FIG. 3", "value": "reduced rearing"},
      {"measurement": "mean number of beam breaks, first thirty bins (first 15 min)", "setting": "[1]; dose-response 0.01-0.04 mg/kg i.p., FIG. 2", "value": "reduced the mean number of beam breaks"},
      {"measurement": "average activity level (number of beam breaks) as a function of time", "setting": "[1]; i.p., 0.01-0.04 mg/kg, first half of 30-min session, FIG. 1", "value": "decreased activity levels"},
      {"measurement": "mean number of beam breaks, first 15 min, lowest dose", "setting": "[1]; lowest dose (0.01 mg/kg) i.p., FIG. 2", "value": "no activity-decreasing effect"},
      {"measurement": "relative potency between strains", "setting": "Wistar Kyoto rats (WKY); WKY vs SHR, from dose-response functions, FIG. 2", "value": "slightly more potent in WKY than in SHR rats"},
      {"measurement": "mean number of beam breaks, first 15 min, largest dose, WKY compared with SHR", "setting": "Wistar Kyoto rats (WKY); WKY vs SHR, largest dose (0.04 mg/kg) i.p., FIG. 2", "value": "greater reduction in activity levels"},
      {"measurement": "activity level (beam breaks) vs baseline", "setting": "Wistar Kyoto rats (WKY); WKY, 0.01 mg/kg i.p., FIG. 1", "value": "reduced activity from baseline"},
      {"measurement": "activity level, largest dose compared with lowest dose", "setting": "Wistar Kyoto rats (WKY); WKY, 0.04 mg/kg vs 0.01 mg/kg i.p., FIG. 1", "value": "greater decrease in activity"},
      {"measurement": "mean rearing, first 30 bins", "setting": "Wistar Kyoto rats (WKY); WKY, 0.01-0.04 mg/kg i.p., FIG. 3", "value": "reduced rearing"},
      {"measurement": "mean number of beam breaks, first thirty bins (first 15 min)", "setting": "Wistar Kyoto rats (WKY); WKY, dose-response 0.01-0.04 mg/kg i.p., FIG. 2", "value": "reduced the mean number of beam breaks"},
      {"measurement": "average activity level (number of beam breaks) as a function of time", "setting": "Wistar Kyoto rats (WKY); WKY, i.p., 0.01-0.04 mg/kg, first half of 30-min session, FIG. 1", "value": "decreased activity levels"},
      {"measurement": "mean number of beam breaks, first 15 min, lowest dose", "setting": "Wistar Kyoto rats (WKY); WKY, lowest dose (0.01 mg/kg) i.p., FIG. 2", "value": "affected by the lowest dose"}
    ]}
  ]
}
